In patent publication US20240325370A1, “THERAPEUTIC REGIMENS OF A DEGRADER OF BRD9” (FOGHORN THERAPEUTICS INC., priority 2021, published 2024):
“Also recorded” adds a separate entry of the source.

Experiments:
[1] = system: SYO-1 synovial sarcoma xenograft; experiment: Intermittent dosing schedules, IP, SYO-1 synovial sarcoma xenograft efficacy; assay type: in vivo, mice; details: for Day 21 Tumor Growth (%) / Day 21 Tumor Size (mm^3): SYO-1 tumor-bearing NOD SCID mice, Mean ± SEM
Description: The racemate, compound D1, which consists of ˜50% compound S-D1, was utilized in an SYO-1 (a synovial sarcoma xenograft) model to explore if similar efficacy is achievable with an intermittent dosing schedule. Due to technical feasibility and animal-welfare considerations, intraperitoneal (IP) administration was chosen over the IV route. […] Groups of female SYO-1 tumor-bearing NOD SCID mice (n=8/group) were intraperitoneally administered with vehicle or compound D1 for 21 days. Compound D1 was formulated as a suspension in 10% DMSO/40% PEG400/50% deionized water, volume/volume (v/v). […] To determine the level of modulation of BRD9 after each regimen, mice (n=4 mice/time-point) were euthanized and tumor samples were collected at different timepoints post-last dose (Day 21). […] BRD9 levels were assessed at 24, 72 and 168 hours (expected time points of trough plasma concentrations) for QD, BIW, and QW regimens respectively, as indicated in Table 8. Samples were analyzed using Western blot method.

[2] = molecular target: T1, BRD9 (Homo sapiens, UniProt Q9H8M2); experiment: BRD9 degradation in synovial sarcoma tumor in vivo (western blot); parameters: from tissue; host or cells: SYO-1 xenograft tumours in BALB/c nude or NOD SCID mice; species or system mice; details: 1 mg/kg i.p. for 4 weeks; up to 168 hours after dose
T1 sequence (Q9H8M2 1-597): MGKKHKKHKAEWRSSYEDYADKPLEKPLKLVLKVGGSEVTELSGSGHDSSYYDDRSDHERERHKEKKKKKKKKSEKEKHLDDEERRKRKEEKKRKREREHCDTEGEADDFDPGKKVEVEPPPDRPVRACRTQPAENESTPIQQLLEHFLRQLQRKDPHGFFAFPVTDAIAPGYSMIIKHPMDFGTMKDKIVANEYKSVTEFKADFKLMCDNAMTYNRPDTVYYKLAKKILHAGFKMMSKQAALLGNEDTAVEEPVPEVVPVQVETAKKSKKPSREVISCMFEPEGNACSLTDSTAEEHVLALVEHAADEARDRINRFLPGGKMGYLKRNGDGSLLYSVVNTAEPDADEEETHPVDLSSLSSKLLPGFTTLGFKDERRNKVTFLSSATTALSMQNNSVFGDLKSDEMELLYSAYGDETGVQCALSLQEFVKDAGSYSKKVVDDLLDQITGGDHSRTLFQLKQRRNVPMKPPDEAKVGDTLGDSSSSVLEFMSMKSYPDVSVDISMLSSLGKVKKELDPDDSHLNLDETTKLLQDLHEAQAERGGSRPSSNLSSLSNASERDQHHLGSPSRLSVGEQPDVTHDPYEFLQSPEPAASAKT
Procedure: Method: Mice were treated with D1, 1 mg/kg, i.p. for 4 weeks. Mice were then euthanized, and tumors were collected at 8 hours, 72 hours, and 168 hours post last dose. Tumors were lysed with 1×RIPA lysis buffer (Boston BioProducts, BP-115D) with protease and phosphatase protein inhibitor (Roche Applied Science #04906837001 & 05892791001). Equal amounts of lysate (30 ug) were loaded in 4-12% Bis-Tris Midi Protein Gels in 1×MOPS buffer; samples ran at 120 V for 120 minutes. Protein was transferred to membrane with TransBlot at 250 mA for 150 minutes, and then membranes were blocked with Odyssey blocking buffer for 1 hour at room temperature. Membranes were hybridized overnight in cold room with primary antibodies. Images acquired using Li-COR imaging system (Li-COR Biotechnology, Lincoln, Nebraska).

[3] = molecular target: T1, BRD9; experiment: Drug washout and competition experiments in SYO-1 cells; details: two washouts, five washes per washout step
Procedure: Drug Washout and Competition Experiments in SYO-1 Cells.
SYO-1 cells grown in flasks to log phase growth were washed with PBS and dissociated by adding TrypLE™ Express. The collected cells were resuspended in DMEM (high glucose, with GlutaMAX™ supplement) with 10% FBS.
Cells were collected using fresh media and measured for cell number. 1×10^6 cells were harvested for the 24-hour treatment sample and frozen down at −80° C. The remainder of the treated cells were washed five times with 10 ml fresh media, through sequential rounds of resuspension and centrifugation at 1,000 rpm for 5 minutes.
Another 1×10^6 cells were harvested for the 24-hour post-washout sample and frozen down at −80° C. The remainder of the cells were split off evenly into two separate 100 mm petri dishes and resuspended in 10 ml culture medium in each plate.
The remaining cells of each treatment group were washed five times with 10 mL fresh media. Cells were then seeded evenly into 6-well plates in 2 ml fresh media per well. 2 wells were allocated per collection time point.

[4] = 0.1 mg/kg QD × 21 days IP, Day 21
[5] = 0.35 mg/kg BIW × 3 weeks IP, Day 21
[6] = 0.5 mg/kg QD × 21 days IP, Day 21
[7] = 0.7 mg/kg QW × 3 weeks IP, Day 21
[8] = 3.5 mg/kg QW × 3 weeks IP, Day 21

## COc1cc(-c2cn(C)c(=O)c3cnc(N4CCC4)cc23)cc(OC)c1CN1CCC(CN2CCC3(CC2)CN(c2ccc4c(c2)C(=O)N(C2CCC(=O)NC2=O)C4)C3)CC1 (racemic) [Compound D1, 3-[6-(7-[[1-([4-[6-(azetidin-1-yl)-2-methyl-1-oxo-2,7-naphthyridin-4-yl]-2,6-dimethoxyphenyl]methyl)piperidin-4-yl]methyl]-2,7-diazaspiro[3.5]nonan-2-yl)-1-oxo-3H-isoindol-2-yl]piperidine-2,6-dione]
[1]; [4]
  T/C (%): 25.4%
  TGI (%): 74.6%
[1]; 0.1 mg/kg QD × 21 days IP
  Day 21 Tumor Growth (%): 535 ± 39%
  Day 21 Tumor Size (mm^3): 552 ± 59 mm^3
[1]; [5]
  T/C (%): 49.0%
  TGI (%): 51.0%
[1]; 0.35 mg/kg BIW × 3 weeks IP
  Day 21 Tumor Growth (%): 1033 ± 64%
  Day 21 Tumor Size (mm^3): 1179 ± 117 mm^3
[1]; [6]
  T/C (%): 13.4%
  TGI (%): 86.6%
[1]; 0.5 mg/kg QD × 21 days IP
  Day 21 Tumor Growth (%): 284 ± 21%
  Day 21 Tumor Size (mm^3): 341 ± 57 mm^3
[1]; [7]
  T/C (%): 45.1%
  TGI (%): 54.9%
[1]; 0.7 mg/kg QW × 3 weeks IP
  Day 21 Tumor Growth (%): 951 ± 115%
  Day 21 Tumor Size (mm^3): 1065 ± 107 mm^3
[1]; [8]
  T/C (%): 18.0%
  TGI (%): 82.0%
[1]; 3.5 mg/kg QW × 3 weeks IP
  Day 21 Tumor Growth (%): 379 ± 43%
  Day 21 Tumor Size (mm^3): 449 ± 69 mm^3
[1]; all dosing regimens, IP, Day 21
  TGI compared to the vehicle control: significant TGI
[2]
  degradation of BRD9 in tumor: complete degradation of BRD9 target; also recorded: BRD9 inhibition

## COc1cc(-c2cn(C)c(=O)c3cnc(N4CCC4)cc23)cc(OC)c1CN1CCC(CN2CCC3(CC2)CN(c2ccc4c(c2)C(=O)N([C@H]2CCC(=O)NC2=O)C4)C3)CC1 (single isomer, unassigned) [Compound S-D1]
[3]
  BRD9 degradation after second washout (removal of binding competitors): retention of the BRD9-suppressive activity; also recorded: degraded again
